# From ChEMBL document CHEMBL2203152, “Systematic in vivo screening of a series of 1-propyl-4-arylpiperidines against dopaminergic and serotonergic properties in rat brain: a scaffold-jumping approach” (J Med Chem, 2012)
# The source made the active and inactive calls. The calls are words filed in the database; no cut-off is given here.
# Columns and labels:
# Rattus norvegicus [1] = assay: Decrease in 5-HIAA level in Sprague-Dawley rat striatum at 37 umol/kg, sc by HPLC analysis relative to saline-treated control; format: functional; design: scale not given: the % may be the effect or the level left
# Rattus norvegicus [2] = assay: Reduction in spontaneous locomotor activity in Sprague-Dawley rat at 37 umol/kg, sc measured after 15 to 60 mins relative to saline-treated control; format: functional; design: scale not given: the % may be the effect or the level left
# Rattus norvegicus [3] = assay: Increase in DOPAC level in Sprague-Dawley rat striatum at 37 umol/kg, sc by HPLC analysis relative to saline-treated control; format: functional
# Rattus norvegicus [4] = assay: Decrease in 5-HIAA level in Sprague-Dawley rat striatum at 6.4 umol/kg, sc by HPLC analysis relative to saline-treated control; format: functional; design: scale not given: the % may be the effect or the level left
# Rattus norvegicus [5] = assay: Increase in DOPAC level in sc dosed Sprague-Dawley rat striatum by HPLC analysis; format: functional
# Rattus norvegicus [6] = assay: Increase in DOPAC level in Sprague-Dawley rat striatum at 6.4 umol/kg, sc by HPLC analysis relative to saline-treated control; format: functional
# Rattus norvegicus [7] = assay: Reduction in spontaneous locomotor activity in Sprague-Dawley rat at 6.4 umol/kg, sc measured after 15 to 60 mins relative to saline-treated control; format: functional; design: scale not given: the % may be the effect or the level left
# Rattus norvegicus [8] = assay: Reduction in spontaneous locomotor activity in Sprague-Dawley rat at 5.8 umol/kg, sc measured after 15 to 60 mins relative to saline-treated control; format: functional; design: scale not given: the % may be the effect or the level left
# Rattus norvegicus [9] = assay: Decrease in 5-HIAA level in Sprague-Dawley rat striatum at 5.8 umol/kg, sc by HPLC analysis relative to saline-treated control; format: functional; design: scale not given: the % may be the effect or the level left
# Rattus norvegicus [10] = assay: Increase in DOPAC level in Sprague-Dawley rat striatum at 5.8 umol/kg, sc by HPLC analysis relative to saline-treated control; format: functional
# Rattus norvegicus [11] = assay: Increase in DOPAC level in Sprague-Dawley rat striatum at 33 umol/kg, sc by HPLC analysis relative to saline-treated control; format: functional
# [12] = target: 5-hydroxytryptamine receptor 2A (Homo sapiens, UniProt P28223); assay: Displacement of [3H]ketanserin from human 5-HT2A by CEREP assay; settings: read-out: Ki(app)
# Rattus norvegicus [13] = assay: Decrease in 5-HIAA level in Sprague-Dawley rat striatum at 33 umol/kg, sc by HPLC analysis relative to saline-treated control; format: functional; design: scale not given: the % may be the effect or the level left
# D(2) dopamine receptor [14] = target: T1, D(2) dopamine receptor (Homo sapiens, UniProt P14416); assay: Displacement of [3H]7-OH-DPAT from human high affinity Dopamine D2S receptor by competition binding assay
# [15] = target: T2, D(4) dopamine receptor (Homo sapiens) (UniProt P21917); assay: Displacement of [3H]methylspiperone from human dopamine D4 receptor at 1 uM by CEREP assay
# T2 sequence (whole entry): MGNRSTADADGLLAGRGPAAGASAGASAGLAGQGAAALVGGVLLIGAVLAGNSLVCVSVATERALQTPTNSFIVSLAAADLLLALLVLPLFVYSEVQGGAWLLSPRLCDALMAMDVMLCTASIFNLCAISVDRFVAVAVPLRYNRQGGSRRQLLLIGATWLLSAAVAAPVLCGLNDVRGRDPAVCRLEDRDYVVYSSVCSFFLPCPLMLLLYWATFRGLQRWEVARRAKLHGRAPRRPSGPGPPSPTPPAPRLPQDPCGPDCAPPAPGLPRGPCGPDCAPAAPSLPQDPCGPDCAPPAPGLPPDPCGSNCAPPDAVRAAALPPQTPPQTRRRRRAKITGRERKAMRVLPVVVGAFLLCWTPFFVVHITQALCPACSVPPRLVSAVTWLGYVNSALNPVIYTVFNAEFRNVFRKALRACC
# Rattus norvegicus [16] = assay: Inhibition of MK-801-induced hyperlocomotion in sc dosed Sprague-Dawley rat sc measured after 15 to 60 mins relative to saline-treated control; format: functional
# [17] = target: T3, Amine oxidase [flavin-containing] A (Rattus norvegicus, UniProt P21396); assay: Displacement of [3H]Ro 41-1049 from MAO-A in rat cerebral cortex by competition binding assay; format: tissue-based
# T3 sequence (P21396 whole entry): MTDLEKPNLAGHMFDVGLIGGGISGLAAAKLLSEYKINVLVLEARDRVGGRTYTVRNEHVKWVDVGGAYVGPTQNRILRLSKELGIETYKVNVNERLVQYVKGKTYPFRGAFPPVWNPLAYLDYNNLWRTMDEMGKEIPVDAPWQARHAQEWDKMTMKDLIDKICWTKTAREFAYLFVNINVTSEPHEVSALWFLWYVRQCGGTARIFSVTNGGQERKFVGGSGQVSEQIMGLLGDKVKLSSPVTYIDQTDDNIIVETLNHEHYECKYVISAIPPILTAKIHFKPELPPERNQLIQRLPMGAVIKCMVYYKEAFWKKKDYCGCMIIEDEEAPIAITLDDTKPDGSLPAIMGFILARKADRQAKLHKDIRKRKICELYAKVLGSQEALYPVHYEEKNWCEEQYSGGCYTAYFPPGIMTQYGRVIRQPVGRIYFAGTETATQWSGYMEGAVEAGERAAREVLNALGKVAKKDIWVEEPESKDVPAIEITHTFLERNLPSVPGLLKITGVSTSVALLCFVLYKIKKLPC
# D(2) dopamine receptor [18] = target: T1, D(2) dopamine receptor; assay: Displacement of [3H]methylspiperone from human low affinity Dopamine D2S receptor by competition binding assay
# [19] = target: T4, 5-hydroxytryptamine receptor 1A (Homo sapiens, UniProt P08908); assay: Displacement of [3H]8- OH-DPAT from human 5-HT1A by CEREP assay; settings: read-out: Ki(app)
# T4 sequence (P08908 whole entry): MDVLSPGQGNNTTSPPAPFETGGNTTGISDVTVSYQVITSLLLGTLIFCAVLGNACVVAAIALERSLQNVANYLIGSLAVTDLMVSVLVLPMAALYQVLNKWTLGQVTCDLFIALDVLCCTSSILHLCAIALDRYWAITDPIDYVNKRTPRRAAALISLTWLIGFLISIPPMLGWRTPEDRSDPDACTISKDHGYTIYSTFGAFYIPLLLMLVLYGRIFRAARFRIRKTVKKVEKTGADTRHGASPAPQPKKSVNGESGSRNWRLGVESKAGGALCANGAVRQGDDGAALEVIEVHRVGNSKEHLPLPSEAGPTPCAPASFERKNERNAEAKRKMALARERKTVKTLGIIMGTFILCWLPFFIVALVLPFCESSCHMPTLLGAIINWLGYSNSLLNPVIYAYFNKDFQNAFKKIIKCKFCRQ
# Rattus norvegicus [20] = assay: Reduction in spontaneous locomotor activity in Sprague-Dawley rat at 33 umol/kg, sc measured after 15 to 60 mins relative to saline-treated control; format: functional; design: scale not given: the % may be the effect or the level left
# [21] = target: 5-hydroxytryptamine receptor 6 (Homo sapiens, UniProt P50406); assay: Displacement of [3H]LSD from human 5-HT6 receptor
# [22] = target: Sodium-dependent dopamine transporter (Homo sapiens) (UniProt Q01959); assay: Displacement of [3H]BTCP from human DAT at 1 uM by CEREP assay
# [23] = target: T5, Alpha-2A adrenergic receptor (Homo sapiens, UniProt P08913); assay: Displacement of [3H]UK 14.304 from human adrenergic alpha2A receptor; settings: read-out: Ki(app)
# T5 sequence (P08913 whole entry): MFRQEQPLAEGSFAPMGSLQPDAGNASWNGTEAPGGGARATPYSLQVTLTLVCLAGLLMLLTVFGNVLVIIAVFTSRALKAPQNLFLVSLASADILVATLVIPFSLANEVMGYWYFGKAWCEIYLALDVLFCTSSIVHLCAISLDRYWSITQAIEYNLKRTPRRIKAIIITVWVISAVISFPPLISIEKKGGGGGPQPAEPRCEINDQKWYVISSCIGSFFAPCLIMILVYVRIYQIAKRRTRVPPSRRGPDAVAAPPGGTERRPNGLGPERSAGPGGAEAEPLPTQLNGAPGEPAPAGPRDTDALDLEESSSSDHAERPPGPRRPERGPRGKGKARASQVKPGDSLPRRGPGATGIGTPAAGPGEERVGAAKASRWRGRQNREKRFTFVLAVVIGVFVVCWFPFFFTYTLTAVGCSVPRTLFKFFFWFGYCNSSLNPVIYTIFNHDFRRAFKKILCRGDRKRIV
# Rattus norvegicus [24] = assay: Inhibition of d-amphetamine-induced hyperlocomotion in sc dosed Sprague-Dawley rat sc measured after 15 to 60 mins relative to saline-treated control; format: functional
# D(3) dopamine receptor = D(3) dopamine receptor (Homo sapiens, UniProt P35462); assay: Displacement of [3H]7-OH-DPAT from human dopamine D3 receptor by CEREP assay; settings: read-out: Ki(app)
# Homo sapiens = species on record: Homo sapiens; assay: Selectivity ratio of Ki(app) for human low affinity Dopamine D2S receptor to Ki(app) for human high affinity Dopamine D2S receptor
# [25] = target: Sodium-dependent serotonin transporter (Homo sapiens, UniProt P31645); assay: Displacement of [3H]imipramine from human SERT expressed in CHO cells by competition binding assay; format: cell-based; settings: read-out: Ki(app)
# Rattus norvegicus [26] = assay: Decrease in 5-HIAA level in Sprague-Dawley rat striatum at 2.4 umol/kg, sc by HPLC analysis relative to saline-treated control; format: functional; design: scale not given: the % may be the effect or the level left
# Rattus norvegicus [27] = assay: Increase in DOPAC level in Sprague-Dawley rat striatum at 2.4 umol/kg, sc by HPLC analysis relative to saline-treated control; format: functional
# Rattus norvegicus [28] = assay: Reduction in spontaneous locomotor activity in Sprague-Dawley rat at 2.4 umol/kg, sc measured after 15 to 60 mins relative to saline-treated control; format: functional; design: scale not given: the % may be the effect or the level left
# Rattus norvegicus [29] = assay: Increase in DOPAC level in Sprague-Dawley rat striatum at 25 umol/kg, sc by HPLC analysis relative to saline-treated control; format: functional
# Rattus norvegicus [30] = assay: Reduction in spontaneous locomotor activity in Sprague-Dawley rat at 25 umol/kg, sc measured after 15 to 60 mins relative to saline-treated control; format: functional; design: scale not given: the % may be the effect or the level left
# Rattus norvegicus [31] = assay: Decrease in 5-HIAA level in Sprague-Dawley rat striatum at 25 umol/kg, sc by HPLC analysis relative to saline-treated control; format: functional; design: scale not given: the % may be the effect or the level left
# T1 sequence (P14416 whole entry): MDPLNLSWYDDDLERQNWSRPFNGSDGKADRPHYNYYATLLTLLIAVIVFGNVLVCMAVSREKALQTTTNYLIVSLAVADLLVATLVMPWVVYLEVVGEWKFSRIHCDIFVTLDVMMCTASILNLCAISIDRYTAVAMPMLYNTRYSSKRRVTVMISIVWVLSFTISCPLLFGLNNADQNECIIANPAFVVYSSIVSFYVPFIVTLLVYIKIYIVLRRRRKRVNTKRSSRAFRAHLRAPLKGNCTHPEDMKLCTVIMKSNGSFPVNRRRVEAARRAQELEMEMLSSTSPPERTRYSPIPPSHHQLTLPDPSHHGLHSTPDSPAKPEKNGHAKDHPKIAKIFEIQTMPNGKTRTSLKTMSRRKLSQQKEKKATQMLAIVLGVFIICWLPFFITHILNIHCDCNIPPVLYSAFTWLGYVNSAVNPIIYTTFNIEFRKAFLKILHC
# Sequence of D(3) dopamine receptor (P35462 whole entry): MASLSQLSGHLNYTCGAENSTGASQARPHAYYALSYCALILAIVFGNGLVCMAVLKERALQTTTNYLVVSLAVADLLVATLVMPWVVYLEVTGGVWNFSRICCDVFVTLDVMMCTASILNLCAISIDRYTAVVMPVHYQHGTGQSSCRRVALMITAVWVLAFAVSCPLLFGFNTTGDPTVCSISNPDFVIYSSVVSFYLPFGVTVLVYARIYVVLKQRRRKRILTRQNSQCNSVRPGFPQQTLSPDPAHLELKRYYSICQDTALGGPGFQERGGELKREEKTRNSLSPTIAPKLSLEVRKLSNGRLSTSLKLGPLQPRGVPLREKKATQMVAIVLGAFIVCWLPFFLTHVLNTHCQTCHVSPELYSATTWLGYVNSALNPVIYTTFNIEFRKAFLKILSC
# Sequence of 5-hydroxytryptamine receptor 2A (P28223 whole entry): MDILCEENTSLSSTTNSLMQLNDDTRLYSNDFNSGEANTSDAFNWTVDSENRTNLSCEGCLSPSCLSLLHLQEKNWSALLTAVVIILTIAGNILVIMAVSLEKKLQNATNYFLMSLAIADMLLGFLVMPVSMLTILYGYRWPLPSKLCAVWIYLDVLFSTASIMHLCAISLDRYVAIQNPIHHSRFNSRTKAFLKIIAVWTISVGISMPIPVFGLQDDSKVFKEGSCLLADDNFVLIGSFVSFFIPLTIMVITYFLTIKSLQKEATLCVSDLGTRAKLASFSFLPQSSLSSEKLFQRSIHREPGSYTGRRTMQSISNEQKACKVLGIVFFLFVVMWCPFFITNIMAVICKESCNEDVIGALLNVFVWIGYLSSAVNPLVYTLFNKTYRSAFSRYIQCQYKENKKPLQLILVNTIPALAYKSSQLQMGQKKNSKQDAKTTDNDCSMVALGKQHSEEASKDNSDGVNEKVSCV
# Sequence of Sodium-dependent dopamine transporter (Homo sapiens) (Q01959 whole entry): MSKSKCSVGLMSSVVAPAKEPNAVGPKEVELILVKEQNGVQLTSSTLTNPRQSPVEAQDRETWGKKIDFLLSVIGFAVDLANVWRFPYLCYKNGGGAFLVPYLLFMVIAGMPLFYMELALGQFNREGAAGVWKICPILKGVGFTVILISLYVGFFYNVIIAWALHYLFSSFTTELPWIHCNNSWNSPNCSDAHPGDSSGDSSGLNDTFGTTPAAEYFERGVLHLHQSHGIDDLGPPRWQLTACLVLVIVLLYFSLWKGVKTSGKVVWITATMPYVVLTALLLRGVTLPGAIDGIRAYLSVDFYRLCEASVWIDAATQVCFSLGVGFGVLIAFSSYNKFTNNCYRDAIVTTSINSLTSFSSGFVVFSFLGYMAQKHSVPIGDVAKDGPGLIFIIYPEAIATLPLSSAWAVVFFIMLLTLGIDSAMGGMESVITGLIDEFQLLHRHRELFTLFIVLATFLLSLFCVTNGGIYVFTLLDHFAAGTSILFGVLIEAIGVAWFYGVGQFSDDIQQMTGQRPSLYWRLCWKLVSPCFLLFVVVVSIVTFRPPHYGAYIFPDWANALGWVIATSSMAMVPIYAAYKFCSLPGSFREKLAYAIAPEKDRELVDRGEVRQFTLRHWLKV
# Sequence of 5-hydroxytryptamine receptor 6 (P50406 whole entry): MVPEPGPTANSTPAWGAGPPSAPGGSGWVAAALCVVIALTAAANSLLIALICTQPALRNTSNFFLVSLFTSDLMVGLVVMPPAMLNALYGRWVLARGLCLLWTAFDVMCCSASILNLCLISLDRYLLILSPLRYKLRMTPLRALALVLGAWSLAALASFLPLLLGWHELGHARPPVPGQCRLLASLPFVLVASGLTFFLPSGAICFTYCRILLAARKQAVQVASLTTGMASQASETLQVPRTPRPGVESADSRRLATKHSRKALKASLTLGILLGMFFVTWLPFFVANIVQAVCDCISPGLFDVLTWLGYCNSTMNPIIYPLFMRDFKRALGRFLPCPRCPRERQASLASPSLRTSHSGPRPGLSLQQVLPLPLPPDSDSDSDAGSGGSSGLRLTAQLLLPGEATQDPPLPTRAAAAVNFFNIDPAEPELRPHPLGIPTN
# Sequence of Sodium-dependent serotonin transporter (P31645 whole entry): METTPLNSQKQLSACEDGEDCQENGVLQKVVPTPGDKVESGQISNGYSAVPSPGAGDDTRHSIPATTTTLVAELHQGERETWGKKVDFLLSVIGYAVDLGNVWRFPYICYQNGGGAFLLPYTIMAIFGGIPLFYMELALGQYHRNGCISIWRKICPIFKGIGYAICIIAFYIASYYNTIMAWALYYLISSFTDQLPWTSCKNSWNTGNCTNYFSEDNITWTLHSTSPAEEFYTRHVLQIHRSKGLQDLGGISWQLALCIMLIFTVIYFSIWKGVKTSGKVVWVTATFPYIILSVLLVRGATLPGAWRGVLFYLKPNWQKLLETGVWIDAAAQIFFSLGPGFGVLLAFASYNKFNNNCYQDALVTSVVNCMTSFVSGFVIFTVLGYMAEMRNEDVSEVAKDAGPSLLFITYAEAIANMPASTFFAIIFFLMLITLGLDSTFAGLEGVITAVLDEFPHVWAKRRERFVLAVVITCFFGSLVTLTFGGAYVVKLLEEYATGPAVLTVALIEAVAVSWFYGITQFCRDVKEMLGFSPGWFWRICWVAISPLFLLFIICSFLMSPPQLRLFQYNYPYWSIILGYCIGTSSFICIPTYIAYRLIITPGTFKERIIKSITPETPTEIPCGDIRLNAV
smiles,measurement,setting,value
O=C(NCCN1CCOCC1)c1ccc(Cl)cc1 [MOCLOBEMIDE],Activity,Rattus norvegicus [1],81%
same,Activity,Rattus norvegicus [2],164%
same,Activity,Rattus norvegicus [3],18%
O=C1Cc2cc(CCN3CCN(c4nsc5ccccc45)CC3)c(Cl)cc2N1 [ZIPRASIDONE],Activity,Rattus norvegicus [4],98%
same,ED50,Rattus norvegicus [5],1.2 µmol/kg
same,Activity,Rattus norvegicus [6],311%
same,Activity,Rattus norvegicus [7],13%
O=c1[nH]c2ccccc2n1C1CCN(CCCC(c2ccc(F)cc2)c2ccc(F)cc2)CC1 [PIMOZIDE],ED50,Rattus norvegicus [5],1.6 µmol/kg
same,Activity,Rattus norvegicus [8],7.3%
same,Activity,Rattus norvegicus [9],101%
same,Activity,Rattus norvegicus [10],416%
CCCN1CCC(n2c(=O)[nH]c3cc(Cl)ccc32)CC1,Activity,Rattus norvegicus [11],334%
same,Ki,[12],21.6 µM
same,Activity,Rattus norvegicus [13],101%
same,Ki,D(2) dopamine receptor [14],0.456 µM
same,inhibition,[15],17%
same,ED50,Rattus norvegicus [5],7 µmol/kg
same,inhibition (INH),Rattus norvegicus [16],42%
same,IC50,[17],> 580 µM
same,Ki,D(2) dopamine receptor [18],0.371 µM
same,Ki,[19],5.71 µM
same,Activity,Rattus norvegicus [20],54%
same,IC50,[21],> 580 µM
same,inhibition,[22],15%
same,Ki,[23],17.2 µM
same,inhibition (INH),Rattus norvegicus [24],4%
same,Ki,D(3) dopamine receptor,2.52 µM
same,Ratio Ki(app),Homo sapiens,0.8
same,Ki,[25],3.51 µM
Cc1nc2n(c(=O)c1CCN1CCC(c3noc4cc(F)ccc34)CC1)CCCC2 [RISPERIDONE],Activity,Rattus norvegicus [26],115%
same,ED50,Rattus norvegicus [5],0.5 µmol/kg
same,Activity,Rattus norvegicus [27],347%
same,Activity,Rattus norvegicus [28],11%
CN(C)CCCC1(c2ccc(F)cc2)OCc2cc(C#N)ccc21 (configuration not stated) [CITALOPRAM],ED50,Rattus norvegicus [5],inactive
same,Activity,Rattus norvegicus [29],101%
same,Activity,Rattus norvegicus [30],50%
same,Activity,Rattus norvegicus [31],69%
